Laboratory results: PubChem BioAssay AID200 (DTP/NCI, 2004)
Values joined by “and” are separate entries in the source; they are usually repeats but may differ in a detail not shown here. Identical values can stand only once. Toxic doses and inconclusive results are not listed.

Tested on: B6C3F1 mice, B16 melanoma ip, median survival T/C
Test: NCI In Vivo Anticancer Drug Screen. Data for tumor model B16 Melanoma (intraperitoneal) in B6C3F1 mice
Details: endpoint: median survival time, higher = longer survival
Procedure, shortened: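 Readout: survival or tumor size in treated mice relative to vehicle controls (T/C). Model uses transplantable tumors grown in mice.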

[1] = dose: 100.0 mg/kg/injection, schedule: Q01DX009 (ip), vehicle: saline
[2] = dose: 200.0 mg/kg/injection, schedule: Q01DX009 (ip), vehicle: saline
[3] = dose: 400.0 mg/kg/injection, schedule: Q01DX009 (ip), vehicle: saline
[4] = dose: 50.0 mg/kg/injection, schedule: Q01DX009 (ip), vehicle: saline with Tween-80
[5] = dose: 100.0 mg/kg/injection, schedule: Q01DX009 (ip), vehicle: saline with Tween-80
[6] = dose: 200.0 mg/kg/injection, schedule: Q01DX009 (ip), vehicle: saline with Tween-80
[7] = dose: 25.0 mg/kg/injection, schedule: Q01DX009 (ip), vehicle: saline
[8] = dose: 50.0 mg/kg/injection, schedule: Q01DX009 (ip), vehicle: saline
[9] = dose: 25.0 mg/kg/injection, schedule: Q01DX009 (ip), vehicle: saline with Tween-80
[10] = dose: 400.0 mg/kg/injection, schedule: Q01DX009 (ip), vehicle: saline with Tween-80
[11] = dose: 12.5 mg/kg/injection, schedule: Q01DX009 (ip), vehicle: saline
[12] = dose: 12.5 mg/kg/injection, schedule: Q01DX009 (ip), vehicle: saline with Tween-80
[13] = dose: 6.25 mg/kg/injection, schedule: Q01DX009 (ip), vehicle: saline with Tween-80

CC(=O)OC1C(C)OC(OC(=O)C2CCC3C(C2)OC2(CC(OC(=O)/C=C/c4ccccc4)C(C)CO2)C32CO2)C(OC2OC(C)C(O)C(OC(C)=O)C2O)C1O (stereo unspecified)
T/C (dose: 0.75 mg/kg/injection, schedule: Q01DX009 (ip), vehicle: saline + alcohol): 100 % of control | T/C (dose: 1.5 mg/kg/injection, schedule: Q01DX009 (ip), vehicle: saline + alcohol): 99 % of control | T/C (dose: 3.0 mg/kg/injection, schedule: Q01DX009 (ip), vehicle: saline + alcohol): 99 % of control | T/C (dose: 4.0 mg/kg/injection, schedule: Q01DX009 (ip), vehicle: saline + Tween-80 + alcohol): 122 % of control | T/C (dose: 16.0 mg/kg/injection, schedule: Q01DX009 (ip), vehicle: saline + Tween-80 + alcohol): 161 % of control | T/C (dose: 32.0 mg/kg/injection, schedule: Q01DX009 (ip), vehicle: saline + Tween-80 + alcohol): 174 % of control | T/C (dose: 64.0 mg/kg/injection, schedule: Q01DX009 (ip), vehicle: saline + Tween-80 + alcohol): 201 % of control

Nc1ccc(OC(=O)Oc2ccc(N)cc2)cc1
T/C [1]: 113 % of control | T/C [2]: 104 % of control | T/C [3]: 98 % of control

O=C(CCl)Oc1ccc(-c2ccccc2)cc1Br
T/C [4]: 98 % of control | T/C [5]: 90 % of control | T/C [6]: 87 % of control

Nc1nc(F)nc2c1ncn2C1OC(COP(=O)(O)O)C(O)C1O (stereo unspecified)
T/C (dose: 12.5 mg/kg/injection, schedule: Q01DX009 (ip), vehicle: suspension in saline): 90 % of control | T/C (dose: 25.0 mg/kg/injection, schedule: Q01DX009 (ip), vehicle: suspension in saline): 97 % of control | T/C (dose: 50.0 mg/kg/injection, schedule: Q01DX009 (ip), vehicle: suspension in saline): 93 % of control | T/C (dose: 100.0 mg/kg/injection, schedule: Q01DX009 (ip), vehicle: suspension in saline): 105 % of control

COCCOC
T/C [1]: 98 % of control | T/C [2]: 94 % of control | T/C [3]: 96 % of control

Nc1c(Cl)[nH]cnc1=S
T/C [7]: 89 % of control | T/C [8]: 105 % of control | T/C [1]: 88 % of control and 91 % of control

Nc1cc(Cl)c(N=Nc2ccccc2)c(N)n1
T/C [5]: 89 % of control | T/C [6]: 90 % of control

CN=C(N)N/N=C(\C)c1ccc2sc3ccc(/C(C)=N/NC(N)=NC)cc3c2c1
T/C [9]: 108 % of control | T/C [4]: 113 % of control | T/C [5]: 120 % of control | T/C [6]: 119 % of control | T/C [10]: 95 % of control

CC1=NN(c2ccccc2)C(=O)C1N=Nc1ccccc1S(=O)(=O)O (stereo unspecified)
T/C [11]: 104 % of control | T/C [7]: 94 % of control | T/C [8]: 96 % of control

COc1cccc2c1C(=O)c1c(O)c3c(c(O)c1C2=O)C[C@](O)(C(=O)CO)CC3OC1CC(N)C(OC2CCCCO2)C(C)O1 (stereo partly specified)
T/C (dose: 1.5 mg/kg/injection, schedule: Q01DX009 (ip), vehicle: water): 382 % of control | T/C (dose: 1.56 mg/kg/injection, schedule: Q01DX001 (ip), vehicle: water): 172 % of control | T/C (dose: 3.12 mg/kg/injection, schedule: Q01DX001 (ip), vehicle: water): 206 % of control and 218 % of control | T/C (dose: 6.25 mg/kg/injection, schedule: Q01DX001 (ip), vehicle: water): 222 % of control and 317 % of control | T/C (dose: 12.5 mg/kg/injection, schedule: Q01DX001 (ip), vehicle: water): 229 % of control and 264 % of control

O=C1c2ccccc2CCC1(Br)Br
T/C (dose: 2.5 mg/kg/injection, schedule: Q01DX009 (ip), vehicle: Klucel (hydroxypropylcellulose) (HPC)): 107 % of control | T/C (dose: 10.0 mg/kg/injection, schedule: Q01DX009 (ip), vehicle: Klucel (hydroxypropylcellulose) (HPC)): 90 % of control

c1ccc2sc(SSN3CC4CCC(CC4)C3)nc2c1
T/C [12]: 95 % of control and 108 % of control | T/C [9]: 93 % of control and 102 % of control | T/C [4]: 87 % of control and 102 % of control | T/C [5]: 97 % of control | T/C [6]: 87 % of control | T/C [10]: 88 % of control

C=CC1(C)CCC2C(=CCC3C2(C)CC(O)C(O)C3(C)COC2OC(CO)C(O)C(O)C2O)C1 (stereo unspecified)
T/C (dose: 1.5 mg/kg/injection, schedule: Q01DX009 (ip), vehicle: Klucel (hydroxypropylcellulose) (HPC)): 116 % of control | T/C (dose: 3.0 mg/kg/injection, schedule: Q01DX009 (ip), vehicle: Klucel (hydroxypropylcellulose) (HPC)): 103 % of control | T/C (dose: 6.0 mg/kg/injection, schedule: Q01DX009 (ip), vehicle: Klucel (hydroxypropylcellulose) (HPC)): 113 % of control | T/C (dose: 12.0 mg/kg/injection, schedule: Q01DX009 (ip), vehicle: Klucel (hydroxypropylcellulose) (HPC)): 107 % of control | T/C (dose: 24.0 mg/kg/injection, schedule: Q01DX009 (ip), vehicle: Klucel (hydroxypropylcellulose) (HPC)): 108 % of control

N=C(N)SCc1c2ccccc2c(CSC(=N)N)c2ccccc12
T/C (dose: 6.25 mg/kg/injection, schedule: Q01DX009 (ip), vehicle: saline): 156 % of control | T/C [11]: 181 % of control | T/C [7]: 228 % of control | T/C [8]: 320 % of control

N#CC(=C1C=CC(=NO)C=C1)c1ccc(Cl)cc1
T/C [13]: 101 % of control | T/C [12]: 105 % of control | T/C [9]: 99 % of control | T/C [4]: 99 % of control | T/C [5]: 98 % of control | T/C [6]: 97 % of control

NC(=O)c1c[se]c(C2OC(CO)C(O)C2O)n1 (stereo unspecified)
T/C (dose: 12.5 mg/kg/injection, schedule: Q01DX009 (ip), vehicle: water): 109 % of control | T/C (dose: 25.0 mg/kg/injection, schedule: Q01DX009 (ip), vehicle: water): 102 % of control | T/C (dose: 50.0 mg/kg/injection, schedule: Q01DX009 (ip), vehicle: water): 115 % of control | T/C (dose: 100.0 mg/kg/injection, schedule: Q01DX009 (ip), vehicle: water): 109 % of control

C(COCCOCC1CO1)OCCOCC1CO1 (stereo unspecified)
T/C [11]: 108 % of control | T/C [7]: 104 % of control | T/C [8]: 107 % of control | T/C [2]: 153 % of control | T/C [3]: 178 % of control

O=C1C2CC=CCC2C(=O)N1SC(Cl)(Cl)Cl (stereo unspecified)
T/C (dose: 0.78 mg/kg/injection, schedule: Q01DX009 (ip), vehicle: saline with Tween-80): 90 % of control and 97 % of control | T/C (dose: 1.56 mg/kg/injection, schedule: Q01DX009 (ip), vehicle: saline with Tween-80): 97 % of control | T/C (dose: 3.12 mg/kg/injection, schedule: Q01DX009 (ip), vehicle: saline with Tween-80): 89 % of control | T/C [13]: 93 % of control | T/C [12]: 88 % of control | T/C [9]: 89 % of control

CC(=Nc1ccccc1)C1=C(O)C(Cc2ccccc2)NC1=O (stereo unspecified)
T/C (dose: 3.13 mg/kg/injection, schedule: Q01DX009 (ip), vehicle: saline with Tween-80): 113 % of control | T/C [13]: 121 % of control | T/C [12]: 115 % of control and 103 % of control | T/C [9]: 119 % of control and 103 % of control | T/C [4]: 113 % of control
